This passage reports IC50 results from patent US9340555B2, “Compounds as tyrosine kinase modulators” (Allergan, Inc., priority 2009, dated 2016).

For assay [1], the target named is human VEGF receptor (VEGFR-2) (Homo sapiens (Human), UniProt P35968). Description: VEGFR2 Kinase Assay (Enzymic VEGFR2). The assay is classed as biochemical. The settings on record: His-VEGFR-2 cytoplasmic domain, 3.6 µM ATP. The method, then: VEGFR2 Kinase Assay The cytoplasmic domain of the human VEGF receptor (VEGFR-2) was expressed as a Histidine-tagged fusion protein following infection of insect cells using an His engineered baculovirus. […] Kinase assays were performed in 96 well microtiter plates that were coated overnight with 30 µg of poly-Glu-[…]:1) in 10 mM Phosphate Buffered Saline (PBS), pH 7.2-7.4. The plates were incubated with 1% BSA and then washed four times with PBS prior to starting the reaction. […] Reactions were initiated by the addition 0.5 ng of purified protein. Following a ten minute incubation at 25° C., the reactions were washed four times with PBS containing 0.05% Tween-20. 100 µl of a monoclonal anti-phosphotyrosine antibody-peroxidase conjugate was diluted 1:10000 in PBS-Tween-20 and added to the wells for 30 minutes. Following four washes with PBS-Tween-20, 100 µl of 0-phenylenediamine Dihydrochloride in Phosphate-citrate buffer, containing urea hydrogen peroxide, was added to the wells for 7 minutes as a colorimetric substrate for the peroxidase. […] IC50 values for compound inhibition were calculated directly from graphs of optical density (arbitrary units) versus compound concentration following subtraction of blank values.
human VEGF receptor (VEGFR-2), sequence (P35968 786-1356): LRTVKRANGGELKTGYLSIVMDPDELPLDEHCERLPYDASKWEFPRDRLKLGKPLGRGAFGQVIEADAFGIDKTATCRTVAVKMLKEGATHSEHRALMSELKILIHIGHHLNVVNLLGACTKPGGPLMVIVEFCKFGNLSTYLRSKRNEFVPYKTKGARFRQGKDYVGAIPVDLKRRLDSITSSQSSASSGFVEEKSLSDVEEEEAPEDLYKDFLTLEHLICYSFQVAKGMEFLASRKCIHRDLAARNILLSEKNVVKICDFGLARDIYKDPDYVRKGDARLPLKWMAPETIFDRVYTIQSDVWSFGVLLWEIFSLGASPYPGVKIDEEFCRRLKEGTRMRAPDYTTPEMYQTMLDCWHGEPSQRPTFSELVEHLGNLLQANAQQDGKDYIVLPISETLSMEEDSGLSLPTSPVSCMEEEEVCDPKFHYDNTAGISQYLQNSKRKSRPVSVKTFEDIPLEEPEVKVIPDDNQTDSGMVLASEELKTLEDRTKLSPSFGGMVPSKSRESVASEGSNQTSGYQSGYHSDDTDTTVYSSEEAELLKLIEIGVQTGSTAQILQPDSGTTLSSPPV

For assay [2], the target named is VEGFR2 (Homo sapiens (Human), UniProt P35968). Description: VEGF Stimulated Ca++ Signal In Vitro (Cellular VEGFR2, FLIPR). Format: cell-based. The settings on record: HUVEC, VEGF stimulation (5 ng/mL), intracellular calcium.
VEGFR2, sequence (P35968 20-1356): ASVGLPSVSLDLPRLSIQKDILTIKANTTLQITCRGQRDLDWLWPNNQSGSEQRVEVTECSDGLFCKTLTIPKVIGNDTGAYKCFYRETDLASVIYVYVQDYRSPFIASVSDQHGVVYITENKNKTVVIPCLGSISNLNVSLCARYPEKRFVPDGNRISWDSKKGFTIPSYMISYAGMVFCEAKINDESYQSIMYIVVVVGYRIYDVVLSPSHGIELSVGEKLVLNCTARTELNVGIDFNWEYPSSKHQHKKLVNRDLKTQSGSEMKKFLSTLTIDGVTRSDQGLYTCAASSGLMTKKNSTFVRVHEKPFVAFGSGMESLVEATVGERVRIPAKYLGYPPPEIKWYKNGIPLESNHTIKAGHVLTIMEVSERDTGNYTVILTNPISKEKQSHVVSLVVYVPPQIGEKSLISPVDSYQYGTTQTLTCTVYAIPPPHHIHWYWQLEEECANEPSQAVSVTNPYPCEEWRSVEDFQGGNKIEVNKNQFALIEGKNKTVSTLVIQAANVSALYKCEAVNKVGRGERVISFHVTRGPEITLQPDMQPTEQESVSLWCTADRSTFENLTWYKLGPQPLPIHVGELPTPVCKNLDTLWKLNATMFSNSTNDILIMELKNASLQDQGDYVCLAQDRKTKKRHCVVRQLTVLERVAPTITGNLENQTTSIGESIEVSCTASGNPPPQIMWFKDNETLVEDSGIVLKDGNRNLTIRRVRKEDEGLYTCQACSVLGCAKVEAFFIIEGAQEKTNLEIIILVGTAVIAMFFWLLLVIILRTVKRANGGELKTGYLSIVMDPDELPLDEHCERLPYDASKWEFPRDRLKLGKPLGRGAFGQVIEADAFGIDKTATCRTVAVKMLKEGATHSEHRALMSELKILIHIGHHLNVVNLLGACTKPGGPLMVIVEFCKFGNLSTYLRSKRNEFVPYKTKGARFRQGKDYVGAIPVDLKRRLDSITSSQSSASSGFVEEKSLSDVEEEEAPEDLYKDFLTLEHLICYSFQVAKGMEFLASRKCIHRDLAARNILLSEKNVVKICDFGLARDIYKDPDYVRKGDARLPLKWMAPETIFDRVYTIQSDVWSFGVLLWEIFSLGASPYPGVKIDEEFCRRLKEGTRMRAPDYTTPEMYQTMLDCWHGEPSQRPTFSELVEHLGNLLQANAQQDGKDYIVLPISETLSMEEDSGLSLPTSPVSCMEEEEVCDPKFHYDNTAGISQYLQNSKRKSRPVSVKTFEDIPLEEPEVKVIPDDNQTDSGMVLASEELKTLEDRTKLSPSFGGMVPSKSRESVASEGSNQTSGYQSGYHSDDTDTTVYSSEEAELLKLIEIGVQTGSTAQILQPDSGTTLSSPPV
Assay [3] has as its target PDGFRβ (Homo sapiens (Human), UniProt P09619). The assay can be described thus: Enzymic PDGFRβ. The assay is classed as biochemical.
For assay [4], the target named is VEGFR1 (Homo sapiens (Human), UniProt P17948). Description: Enzymic VEGFR1. The assay is classed as biochemical.
VEGFR1, sequence (P17948 27-1338, species assumed): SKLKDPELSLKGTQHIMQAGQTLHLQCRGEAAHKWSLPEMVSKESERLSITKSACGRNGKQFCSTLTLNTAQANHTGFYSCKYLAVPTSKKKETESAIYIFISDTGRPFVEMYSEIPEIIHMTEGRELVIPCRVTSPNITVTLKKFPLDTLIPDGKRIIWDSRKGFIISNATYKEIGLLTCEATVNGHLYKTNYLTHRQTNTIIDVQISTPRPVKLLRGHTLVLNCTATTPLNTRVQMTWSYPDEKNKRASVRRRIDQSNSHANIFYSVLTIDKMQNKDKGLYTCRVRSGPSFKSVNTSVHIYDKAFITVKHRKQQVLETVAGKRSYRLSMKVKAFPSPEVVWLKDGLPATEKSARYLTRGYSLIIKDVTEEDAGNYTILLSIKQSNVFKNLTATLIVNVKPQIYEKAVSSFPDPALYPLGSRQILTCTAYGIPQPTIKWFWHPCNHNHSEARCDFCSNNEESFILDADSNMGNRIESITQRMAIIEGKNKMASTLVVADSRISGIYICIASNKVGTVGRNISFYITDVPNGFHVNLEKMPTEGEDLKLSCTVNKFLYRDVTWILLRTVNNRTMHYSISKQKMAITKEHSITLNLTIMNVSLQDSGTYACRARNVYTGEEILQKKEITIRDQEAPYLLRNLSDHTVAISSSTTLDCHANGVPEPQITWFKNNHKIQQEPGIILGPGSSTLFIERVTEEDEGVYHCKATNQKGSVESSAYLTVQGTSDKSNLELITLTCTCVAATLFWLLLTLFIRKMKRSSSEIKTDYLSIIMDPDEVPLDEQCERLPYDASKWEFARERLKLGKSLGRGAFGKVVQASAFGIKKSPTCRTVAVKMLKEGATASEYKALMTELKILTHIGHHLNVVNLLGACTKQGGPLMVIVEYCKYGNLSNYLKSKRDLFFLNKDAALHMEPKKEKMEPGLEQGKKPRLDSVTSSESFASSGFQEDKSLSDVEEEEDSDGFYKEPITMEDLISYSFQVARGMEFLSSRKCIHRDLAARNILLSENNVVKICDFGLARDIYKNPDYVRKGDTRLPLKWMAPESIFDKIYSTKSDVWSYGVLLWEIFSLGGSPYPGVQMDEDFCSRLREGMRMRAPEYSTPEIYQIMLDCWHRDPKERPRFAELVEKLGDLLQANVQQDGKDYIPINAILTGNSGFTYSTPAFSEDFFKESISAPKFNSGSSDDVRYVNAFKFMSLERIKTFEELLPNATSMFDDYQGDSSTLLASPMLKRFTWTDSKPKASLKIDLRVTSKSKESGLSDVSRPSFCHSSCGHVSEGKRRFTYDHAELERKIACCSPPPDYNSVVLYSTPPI

PDGFRβ, sequence (P09619 33-1106, species assumed): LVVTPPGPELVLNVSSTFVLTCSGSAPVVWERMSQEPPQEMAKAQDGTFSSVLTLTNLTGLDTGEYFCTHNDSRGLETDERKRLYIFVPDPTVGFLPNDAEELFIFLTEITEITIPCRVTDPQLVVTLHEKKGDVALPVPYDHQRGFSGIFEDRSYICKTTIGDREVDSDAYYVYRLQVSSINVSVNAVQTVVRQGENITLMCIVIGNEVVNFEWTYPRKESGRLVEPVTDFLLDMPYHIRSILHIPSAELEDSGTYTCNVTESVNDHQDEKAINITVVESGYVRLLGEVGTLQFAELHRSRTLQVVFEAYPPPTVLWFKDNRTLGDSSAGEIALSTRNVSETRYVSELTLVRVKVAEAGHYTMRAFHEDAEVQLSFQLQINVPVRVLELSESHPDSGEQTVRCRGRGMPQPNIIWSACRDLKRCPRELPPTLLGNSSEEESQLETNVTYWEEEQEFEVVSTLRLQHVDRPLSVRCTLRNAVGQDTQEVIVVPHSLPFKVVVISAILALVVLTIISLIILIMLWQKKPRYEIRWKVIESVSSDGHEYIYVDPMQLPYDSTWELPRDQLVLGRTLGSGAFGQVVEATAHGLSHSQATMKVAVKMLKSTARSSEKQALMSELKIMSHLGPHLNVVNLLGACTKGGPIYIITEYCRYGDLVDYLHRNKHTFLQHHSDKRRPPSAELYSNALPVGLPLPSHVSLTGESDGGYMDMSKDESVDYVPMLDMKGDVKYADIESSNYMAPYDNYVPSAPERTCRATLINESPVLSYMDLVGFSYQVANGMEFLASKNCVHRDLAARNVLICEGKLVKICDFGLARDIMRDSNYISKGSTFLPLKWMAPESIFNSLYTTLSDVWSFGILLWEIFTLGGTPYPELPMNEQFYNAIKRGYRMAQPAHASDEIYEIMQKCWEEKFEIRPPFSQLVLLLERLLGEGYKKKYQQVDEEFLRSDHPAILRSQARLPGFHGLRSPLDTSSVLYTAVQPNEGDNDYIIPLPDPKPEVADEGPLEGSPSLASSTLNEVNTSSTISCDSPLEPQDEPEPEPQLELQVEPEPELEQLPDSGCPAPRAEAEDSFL

In general, IC50 refers to the concentration at which inhibition is half-maximal. For the compound `Cc1ccc(F)c(NC(=O)Nc2ccc(-c3ccnc4cc(C(=O)O)sc34)cc2)c1` [Compound F5, 7-[4-({[(2-fluoro-5-methylphenyl)amino]carbonyl}amino)phenyl]thieno[3,2-b]pyridine-2-carboxylic acid], the IC50 in assay [1] and in assay [2] was 10000 nM throughout.

For the compound `Cc1ccc(F)c(NC(=O)Nc2ccc(Oc3ccnc4cc(C(=O)NCCCN5CCOC(CO)C5)sc34)cc2)c1` (stereo not drawn) [Example 16, 7-[4-({[(2-fluoro-5-methylphenyl)amino]carbonyl}amino)phenoxy]-N-{3-[2-(hydroxymethyl)morpholin-4-yl]propyl}thieno[3,2-b]pyridine-2-carboxamide], the IC50 in assay [1] is 7 nM; in assay [3] it was 15 nM; in assay [4], 10 nM.

As to `COC(=O)CNCCCNC(=O)c1cc2nccc(Oc3ccc(NC(=O)Nc4cc(C)ccc4F)c(F)c3)c2s1` [Example 25, methyl ({3-[({7-[3-fluoro-4-({[(2-fluoro-5-methylphenyl)amino]carbonyl}amino)phenoxy]thieno[3,2-b]pyridin-2-yl}carbonyl)amino]propyl}amino)acetate], the IC50 amounted to 5 nM in assay [1], 11 nM in assay [3] and 8 nM in assay [4].

In the case of `COC(=O)CN(CCCNC(=O)c1cc2nccc(Oc3ccc(NC(=O)Nc4cc(C)ccc4F)c(F)c3)c2s1)CC(=O)OC` [Example 26, dimethyl 2,2′-({3-[({7-[3-fluoro-4-({[(2-fluoro-5-methylphenyl)amino]carbonyl}amino)phenoxy]thieno[3,2-b]pyridin-2-yl}carbonyl)amino]propyl}imino)diacetate], the IC50 came out at 5 nM in assay [1], 12 nM in assay [3] and 10 nM in assay [4].

Regarding `COC(=O)CN(CCNC(=O)c1cc2nccc(Oc3ccc(NC(=O)Nc4cc(C)ccc4F)c(F)c3)c2s1)CC(=O)OC` [Example 27, dimethyl 2,2′-({2-[({7-[3-fluoro-4-({[(2-fluoro-5-methylphenyl)amino]carbonyl}amino)phenoxy]thieno[3,2-b]pyridin-2-yl}carbonyl)amino]ethyl}imino)diacetate], the IC50 is 16 nM in assay [1], 17 nM in assay [3] and 11 nM in assay [4].

For `Cc1ccc(F)c(NC(=O)Nc2ccc(Oc3ccnc4cc(C(=O)NCCCN5CCCC(CO)C5)sc34)cc2F)c1` (stereo not drawn) [Example 36, 7-[3-fluoro-4-({[(2-fluoro-5-methylphenyl)amino]carbonyl}amino)phenoxy]-N-{3-[3-(hydroxymethyl)piperidin-1-yl]propyl}thieno[3,2-b]pyridine-2-carboxamide], the figures for the IC50 in assay [1] and in assay [4] were 7 nM and 8 nM, respectively.

As for `COC(=O)C1CCCN1CCCNC(=O)c1cc2nccc(Oc3ccc(NC(=O)Nc4cc(C)ccc4F)c(F)c3)c2s1` (stereo not drawn) [Example 42, methyl 1-{3-[({7-[3-fluoro-4-({[(2-fluoro-5-methylphenyl)amino]carbonyl}amino)phenoxy]thieno[3,2-b]pyridin-2-yl}carbonyl)amino]propyl}pyrrolidine-2-carboxylate], the IC50 is 6 nM in assay [1] and 4 nM in assay [2].

Turning to `Cc1ccc(F)c(NC(=O)Nc2ccc(Oc3ccnc4cc(C(=O)NCCCN5CCCC5)sc34)cc2F)c1` [Example 43, 7-[3-fluoro-4-({[(2-fluoro-5-methylphenyl)amino]carbonyl}amino)phenoxy]-N-(3-pyrrolidin-1-ylpropyl)thieno[3,2-b]pyridine-2-carboxamide], the IC50 in assay [1] turned out to be 3 nM; in assay [2] it was 6 nM.

For the compound `Cc1ccc(F)c(NC(=O)Nc2ccc(Oc3ccnc4cc(C(=O)NCCCNC(=O)OC(C)(C)C)sc34)cc2F)c1` [Example 44, tert-butyl {3-[({7-[3-fluoro-4-({[(2-fluoro-5-methylphenyl)amino]carbonyl}amino)phenoxy]thieno[3,2-b]pyridin-2-yl}carbonyl)amino]propyl}carbamate], the IC50 amounted to 11 nM in assay [1] and 16 nM in assay [2].

Turning to `Cc1ccc(F)c(NC(=O)Nc2ccc(Oc3ccnc4cc(C(=O)NCCCN)sc34)cc2F)c1` [Example 45, N-(3-aminopropyl)-7-[3-fluoro-4-({[(2-fluoro-5-methylphenyl)amino]carbonyl}amino)phenoxy]thieno[3,2-b]pyridine-2-carboxamide], the IC50 in assay [1] came out at 7 nM; in assay [2], 10 nM.

With `COC(=O)CC[C@H](NC(=O)c1cc2nccc(Oc3ccc(NC(=O)Nc4cc(C)ccc4F)c(F)c3)c2s1)C(=O)OC` [Example 54, dimethyl (2S)-2-[({7-[3-fluoro-4-({[(2-fluoro-5-methylphenyl)amino]carbonyl}amino)phenoxy]thieno[3,2-b]pyridin-2-yl}carbonyl)amino]pentanedioate], the IC50 was 34 nM in assay [1] and 4 nM in assay [2].

Regarding `CCOC(=O)CCCNC(=O)c1cc2nccc(Oc3ccc(NC(=O)Nc4cc(C)ccc4F)cc3)c2s1` [Example 56, ethyl 4-[({7-[4-({[(2-fluoro-5-methylphenyl)amino]carbonyl}amino)phenoxy]thieno[3,2-b]pyridin-2-yl}carbonyl)amino]butanoate], the IC50 in assay [1] stood at 20 nM; in assay [4], 16 nM.

In the case of `Cc1ccc(F)c(NC(=O)Nc2ccc(Oc3ccnc4cc(C(=O)NCCCC(=O)O)sc34)cc2F)c1` [Example 64, 4-[({7-[3-fluoro-4-({[(2-fluoro-5-methylphenyl)amino]carbonyl}amino)phenoxy]thieno[3,2-b]pyridin-2-yl}carbonyl)amino]butanoic acid], the values for the IC50 in assay [1] and in assay [4] were 13 nM and 7 nM, respectively.

With `Cc1ccc(F)c(NC(=O)Nc2ccc(Oc3ccnc4cc(C(=O)NCCCN5CCCCC5)sc34)cc2)c1` [Example 66, 7-[4-({[(2-fluoro-5-methylphenyl)amino]carbonyl}amino)phenoxy]-N-(3-piperidin-1-ylpropyl)thieno[3,2-b]pyridine-2-carboxamide], the figures for the IC50 in assay [1], in assay [2] and in assay [3] were 4 nM, 16 nM and 16 nM, respectively.

`Cc1ccc(F)c(NC(=O)Nc2ccc(Oc3ccnc4cc(C(=O)NCCCN5CCN(C)CC5)sc34)cc2)c1` [Example 67, 7-[4-({[(2-fluoro-5-methylphenyl)amino]carbonyl}amino)phenoxy]-N-[3-(4-methylpiperazin-1-yl)propyl]thieno[3,2-b]pyridine-2-carboxamide]: the IC50 is 2 nM in assay [1], 2 nM in assay [2] and 9 nM in assay [3].

In the case of `Cc1ccc(F)c(NC(=O)Nc2ccc(Oc3ccnc4cc(C(=O)NCCCN5CCCC5)sc34)cc2)c1` [Example 68, 7-[4-({[(2-fluoro-5-methylphenyl)amino]carbonyl}amino)phenoxy]-N-(3-pyrrolidin-1-ylpropyl)thieno[3,2-b]pyridine-2-carboxamide], the results for the IC50 in assay [1], in assay [2] and in assay [3] were 6 nM, 20 nM and 16 nM, respectively.

Consider `Cc1ccoc1C(=O)Nc1cccc(Oc2ccnc3cc(C(=O)O)sc23)c1` [Example 72, 7-{3-[(3-methyl-2-furoyl)amino]phenoxy}thieno[3,2-b]pyridine-2-carboxylic acid], for which the figures for the IC50 in assay [1], in assay [2] and in assay [3] were 39 nM, 162 nM and 920 nM, respectively.

Turning to `Cc1ccoc1C(=O)Nc1cccc(Oc2ccnc3cc(C(=O)NO)sc23)c1` [Example 75, N-hydroxy-7-{3-[(3-methyl-2-furoyl)amino]phenoxy}thieno[3,2-b]pyridine-2-carboxamide], the IC50 in assay [1] was 11 nM; in assay [2] it was 16 nM; in assay [3], 277 nM.

Turning to `Cc1ccc(F)c(NC(=O)c2cccc(Oc3ccnc4cc(C(=O)O)sc34)c2)c1` [Example 84, 7-(3-{[(2-fluoro-5-methylphenyl)amino]carbonyl}phenoxy)thieno[3,2-b]pyridine-2-carboxylic acid], the IC50 in assay [1] was determined as 20 nM; in assay [2] it was 87 nM; in assay [3], 223 nM.

Consider `CCNC(=O)c1cc2nccc(Oc3cccc(C(=O)Nc4cc(C)ccc4F)c3)c2s1` [Example 85, N-ethyl-7-(3-{[(2-fluoro-5-methylphenyl)amino]carbonyl}phenoxy)thieno[3,2-b]pyridine-2-carboxamide], for which the IC50 in assay [1] is 10 nM; in assay [2], 16 nM; in assay [3], 74 nM.

On to `CCN(CC)C(=O)c1cc2nccc(Oc3cccc(C(=O)Nc4cc(C)ccc4F)c3)c2s1` [Example 86, N,N-diethyl-7-(3-{[(2-fluoro-5-methylphenyl)amino]carbonyl}phenoxy)thieno[3,2-b]pyridine-2-carboxamide], for which the IC50 in assay [1] amounted to 7 nM; in assay [2], 64 nM; in assay [3], 206 nM.

As for `COC(=O)CNCCCNC(=O)c1cc2nccc(Oc3cccc(C(=O)Nc4cc(C)ccc4F)c3)c2s1` [Example 87, Methyl {[3-({[7-(3-{[(2-fluoro-5-methylphenyl)amino]carbonyl}phenoxy)thieno[3,2-b]pyridin-2-yl]carbonyl}amino)propyl]amino}acetate], the results for the IC50 in assay [1], in assay [2] and in assay [3] were 16 nM, 9 nM and 59 nM, respectively.
